According to patent US9505735B2, “Compounds for treating infectious diseases” (Whitehead Institute for Biomedical Research, priority 2012, dated 2016):
Values joined by “and” are separate entries in the source; they are usually repeats but may differ in a detail not shown here. Identical values can stand only once. Like-named read-outs stand apart in the source and are kept apart here.

How the values were obtained:
Gwt1 = target: T1, Gwt1 (Saccharomyces cerevisiae, UniProt P47026); experiment: Antifungal susceptibility testing, screening strains with plasmid-borne GWT1 (low or high copy); type: cell-based, S. cerevisiae
T1 construct: Wildtype S. cerevisiae BY4741; endogenous in cells; host or cells: S. cerevisiae BY4741 (wild type)
T1 sequence (P47026 1-490): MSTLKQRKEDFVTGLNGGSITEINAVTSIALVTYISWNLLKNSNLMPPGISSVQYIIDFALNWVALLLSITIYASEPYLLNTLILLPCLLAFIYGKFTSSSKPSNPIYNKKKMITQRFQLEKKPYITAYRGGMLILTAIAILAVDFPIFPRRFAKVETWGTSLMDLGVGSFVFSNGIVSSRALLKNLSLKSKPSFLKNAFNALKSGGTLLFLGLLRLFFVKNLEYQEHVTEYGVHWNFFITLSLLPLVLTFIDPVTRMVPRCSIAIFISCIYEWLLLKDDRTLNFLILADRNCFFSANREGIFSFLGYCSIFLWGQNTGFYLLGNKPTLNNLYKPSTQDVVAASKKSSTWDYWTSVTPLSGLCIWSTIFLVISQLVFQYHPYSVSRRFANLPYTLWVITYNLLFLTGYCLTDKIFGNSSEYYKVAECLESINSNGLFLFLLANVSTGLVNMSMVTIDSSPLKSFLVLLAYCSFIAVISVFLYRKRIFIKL
Description: (§1) Sensitivity to gepinacin was determined in 96-well, flat bottom microtiter plates using a modification of the NCCLS broth microdilution protocol CLS M27-A3 and RPMI as culture medium. Fungi were inoculated at ˜10^3 cells per ml and incubated for 48 hours at 37° C. after which plates were sealed, shaken and the optical density read at 600 nm (OD600) on a Tecan Safire 2 plate reader. All samples were run in duplicate or triplicate and assays were repeated at least once. Results are expressed as fraction of growth in the absence of compound and the mean and standard deviation are plotted. For the mold A. terreus, inoculum was 10^4 cells per ml and plates were incubated at 35° C. for 48 hours in the dark. Plates were then visually scored as specified by CLSI document M38-A2 to determine the MIC50 and MIC80.
Because GWT1 deletion is lethal in S. cerevisiae strain BY4741, a haploid shuttle strain was constructed in which the genomic copy of GWT1 was deleted and replaced by GWT1 on a plasmid that also encoded the URA3 gene and a G418-resistance gene. To construct this shuttle strain a gwt1Δ/GWT1 heterozygous deletion mutant was transformed with pAGGPD416-GWT1, sporulated and dissected. A colony was selected that grew on both SD-URA and G418-containing plates. PCR with the deletion specific primers (http://wwwsequence.stanford.edu/group/yeast_deletion_project/deletions3.html) was performed to confirm the GWT1 deletion. To change the source of GWT, this shuttle strain was transformed with plasmids containing GWT1 (as a control) or PIG-W and the LEU2 auxotrophy gene followed by selection for growth on SD-LEU plates. Plasmids were constructed by conventional Gateway technology using a GWT1 encoding entry vector and either pAG415GPDccdB or pAG425GPDccdB as the destination vectors. Positive colonies were selected and grown on 5-fluoroorotic acid (5-FOA)-containing plates to promote loss of the pAGGPD416-GWT1 plasmid. The colonies from this plate were then tested for return of uridine auxotrophy to confirm pAGGPD416-GWT1 loss. The PIG-W expression vector was constructed by recombination in yeast as follows. The pAG415GPDccdB vector was cut with Xho1 and Xba1 and the larger piece was gel and column purified. The coding sequence of PIG-W was PCR amplified from the entry clone so that it would have ends facilitating recombination with the cut vector. The shuttle strain was then transformed with these two DNA fragments and plated on SD-LEU plates to select for recombinants. PIG-W plasmid was isolated from the final strain and sequence verified.
(§2) The following gepinacin analogs were tested for activity against Gwt1. Gepinacin, M3, CM2, CM4, CM6, CM7, CM8, and 857621-56-8 were available commercially. The compounds were tested using the “Antifungal Susceptibility Testing” protocol described above. Fungi tested are described in the “Fungal Strains” section above.
An S. cerevesiae strain was generated in which the endogenous Gwt1 gene was deleted. Plasmids (either high copy or low copy) with either S. cerevesiae or human Gwt1 were introduced to produce strains bearing such plasmids expressing either S. cerevesiae or human Gwt1 from a constitutive promoter. Yeast strains were cultured in liquid media in the presence of indicated compounds. Shown in FIGS. 22A-D show the effect of the indicated compounds on growth (assessed by OD600) and viability (assessed using Bactiter Glo) of the yeast strain with high copy or low copy plasmid containing S. cerevesiae Gwt1. The compounds had no effect on strains with the human Gwt1, thus showing the compounds' sensitivity for the fungal (yeast) Gwt1 gene.

[1] = test system: unfolded protein response; experiment: Unfolded protein response GFP reporter (UPRE-GFP), flow cytometry; type: cell-based, S. cerevisiae; conditions: 5 hours
Description: Induction of the unfolded protein response in cells carrying a GFP reporter construct was monitored by flow cytometry after exposure to serial dilutions of the indicated compounds for 5 hrs.
The plasmid pRS304-4XUPRE-GFP was linearized and integrated into the TRP1 locus of S. cerevisiae (W303) to construct a reporter strain as previously described (Cox, et al. (1993) Cell 73, 1197-1206; Pollard, et al. (1998) Mol Cell 1, 171-182). Reporter cells were grown to log phase and exposed to compound at 23° C. for 5 hours before analysis. GFP reporter induction was monitored on a Guava EasyCyte Plus cytometer. The average mean channel fluorescence of duplicate samples was determined, and the experiment was performed twice with similar results.

[2] = test system: Wildtype S. cerevisiae BY4741; experiment: Antifungal susceptibility testing, wildtype yeast; type: cell-based; conditions: Saccharomyces cerevisiae, read-out: EC50 Avg
Description: Archives of all strains were maintained in 25% glycerol at −80° C. Standard S. cerevisiae lab strains W303, BY4741, BY4742 and BY4743 were used for experiments. The C. albicans wild type strain in FIG. 1 was CaI4, a standard laboratory strain (Fonzi, et al. (1993) Genetics 134, 717-728). The C. albicans fluconazole-resistant strains CaCi-2, CaCi-8 and CaCi17 were generously provided by Ted White and originally collected by Spencer Redding and colleagues (White, (1997) Antimicrob Agents Chemother 41, 1488-1494; White, (1997) Antimicrob Agents Chemother 41, 1482-1487; White, et al. (1997) Oral Dis 3 Suppl 1, S102-109). The sequenced C. albicans wild type strain, Sc5314 (Gillum, et al. (1984) Mol Gen Genet 198, 179-182) used in P-glucan experiments was a gift from John Perfect's lab. CaAmphR, an amphotericin B-resistant strain is from ATCC (#20095). Caspofungin-resistant strain Cfr1 was derived by plating Sc5314 on caspofungin plates and isolating resistant colonies. A. terreus was purchased from ATCC (MYA-3633). The C. glabrata strain CgL5c was obtained from John Bennett's lab. The YKO heterozygous diploid strain collection is from Open Biosystems and was generated in BY4743. Haploid deletion strains were from the Yeast Knock-out Deletion Collection and purchased from Invitrogen. The over-expression library was made by transforming BY4741 with the Harvard Institute of Proteomics Flexgene library.
as §1, §2

PIG-W = target: T2, PIG-W (Homo sapiens, UniProt Q7Z7B1); experiment: Growth of S. cerevisiae strain whose GWT1 is replaced by the human gene PIG-W; type: cell-based
T2 construct: expressed in transfected cells; host or cells: S. cerevisiae BY4741-derived gwt1 deletion shuttle strain carrying a pAG415GPD-based PIG-W plasmid
T2 sequence (Q7Z7B1 1-504): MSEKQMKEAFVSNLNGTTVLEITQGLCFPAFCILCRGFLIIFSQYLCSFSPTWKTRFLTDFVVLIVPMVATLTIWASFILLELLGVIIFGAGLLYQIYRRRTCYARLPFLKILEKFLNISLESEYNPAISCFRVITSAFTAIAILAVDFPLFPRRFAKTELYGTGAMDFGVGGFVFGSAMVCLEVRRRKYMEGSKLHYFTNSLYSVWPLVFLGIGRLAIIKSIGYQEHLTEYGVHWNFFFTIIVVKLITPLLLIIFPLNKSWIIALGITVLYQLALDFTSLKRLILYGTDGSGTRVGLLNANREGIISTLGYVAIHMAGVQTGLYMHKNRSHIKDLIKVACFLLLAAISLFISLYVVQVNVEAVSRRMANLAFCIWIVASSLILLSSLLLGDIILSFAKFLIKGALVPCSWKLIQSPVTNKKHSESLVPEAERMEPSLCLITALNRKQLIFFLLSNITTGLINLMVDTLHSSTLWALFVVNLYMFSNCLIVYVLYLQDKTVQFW
Description: as §1
Because GWT1 deletion is lethal in S. cerevisiae strain BY4741, a haploid shuttle strain was constructed in which the genomic copy of GWT1 was deleted and replaced by GWT1 on a plasmid that also encoded the URA3 gene and a G418-resistance gene. […]
An S. cerevesiae strain was generated in which the endogenous Gwt1 gene was deleted. […] Shown in FIGS. 22A-D show the effect of the indicated compounds on growth (assessed by OD600) and viability (assessed using Bactiter Glo) of the yeast strain with high copy or low copy plasmid containing S. cerevesiae Gwt1. […]

Gas1 and CPY maturation = experiment: Protein trafficking analysis (immunoblot of reporter proteins); type: cell-based, S. cerevisiae; conditions: 10 μM, 1 hour
Description: (§3) (A) Immunoblots of lysates prepared from S. cerevisiae treated with gepinacin showing GPI-anchor-selective impairment of protein maturation. The unprocessed (u), precursor (p), and mature (m) forms of the reporter proteins are indicated. The identity of the tagged reporter proteins (top of panel) and the antibodies used for their detection (bottom of panel) are also indicated. Treatment conditions are DMSO (0.05%), gepinacin (GPN, 10 μM) or tunicamycin (Tun, 10 μM). The same lysate was used for both blots. […] GFP expression was monitored by flow cytometry. (C) Anti-fungal susceptibility testing of strains deleted for IRE1 (activator of the UPR) or HAC1 (effector of the UPR) showing their increased sensitivity to gepinacin.
HA-tagged GAS1 was expressed in strain BY4741 CPY-GFP (Yeast GFP collection (Huh, et al. (2003) Nature 425, 686-691) under control of its own promoter using plasmid pCM-HA-GAS1. This construct was created as previously reported except in a gateway plasmid backbone (Fujita, et al. (2006) Mol Biol Cell 17, 834-850). To assess effects on trafficking, strains were incubated for 1 hour at 30° C. with test compounds. Total cellular protein (5 μg) was separated by electrophoresis (Invitrogen 8% gels) and transferred to nitrocellulose membranes. Blots were hybridized with antibodies against HA (Covance), GFP (Roche), or CPY (Invitrogen). Sizes for the various post-translationally modified products of Gas1HA2 and CPY have been previously reported (Fujita, et al. (2006) Mol Biol Cell 17, 834-850). CPY-GFP was used to facilitate discrimination of CPY processing steps because GFP is cleaved from CPY in the yeast vacuole. The experiment, however, was also performed with untagged CPY with the same results.

[3] = test system: S. cerevisiae strains deleted for IRE1 or HAC1; experiment: Antifungal susceptibility testing of UPR-deficient strains; type: cell-based; conditions: 48 hour
Description: as §3
Anti-fungal susceptibility testing of strains bearing deletion of IRE1 (activator of the UPR) or HAC1 (effector of the UPR) using either […] (A) or fluconazole (B). Growth was measured by OD600 after 48 hour exposure to serial dilutions of the compounds as indicated. Results are expressed as a fraction of the OD600 measured in the absence of gepinacin. The mean and standard deviation of triplicate determinations are shown.

[4] = EC50 High Copy GWT1, Screening strains, high copy GWT1 plasmid
[5] = EC50 Low Copy GWT1, Screening strains, low copy GWT1 plasmid

For `COc1ccc(NC(=O)COc2cccc(Oc3ccccn3)c2)cc1` [MAZ1859], the EC50 (Gwt1; [4]) was 7.2 µM and the EC50 (Gwt1; [5]) was 4.9 µM.
In the case of `CC[C@H](C)C[C@H](C)CCCCCCCCC(=O)N[C@H]1C[C@@H](O)[C@@H](NCCN)NC(=O)[C@@H]2[C@@H](O)CCN2C(=O)[C@H]([C@H](O)CCN)NC(=O)[C@H]([C@H](O)[C@@H](O)c2ccc(O)cc2)NC(=O)[C@@H]2C[C@@H](O)CN2C(=O)[C@H]([C@@H](C)O)NC1=O` [caspofungin], the “activation of the unfolded protein response (GFP reporter)” value [1] is reported as “not seen”.
`COc1ccc(NC(=O)COc2cccc(OCCC(C)C)c2)cc1` [CM7] was tested, and the EC50 (Gwt1; [4]) was 6.2 µM, the EC50 (Gwt1; [5]) was 1.31 µM and the EC50 ([2]; Wildtype S. cerevisiae BY4741) was 2.65 µM.
For `COc1ccc(NC(=O)C(C)Oc2cccc(OCc3ccccc3)c2)cc1` (stereo not drawn) [MAZ1844], the “activity against Gwt1” value (Gwt1) was “not Gwt1” and the “activity against PigW / in the PIG-W expressing strain” value (PIG-W) was “active”.
With `C[C@@H]1[C@H](O)[C@@H](C)/C=C/C=C/C=C/C=C/C=C/C=C/C=C/[C@H](O[C@@H]2O[C@H](C)[C@@H](O)[C@H](N)[C@@H]2O)C[C@@H]2O[C@](O)(C[C@@H](O)C[C@@H](O)[C@H](O)CC[C@@H](O)C[C@@H](O)CC(=O)O[C@H]1C)C[C@H](O)[C@H]2C(=O)O` [amphotericin B] the “activation of the unfolded protein response (GFP reporter)” value [1] was “not seen”.
With tunicamycin [reference compound] the “CPY (not GPI-anchored) processing” value (Gas1 and CPY maturation) was “alters the processing of both proteins”, the “Gas1 (GPI-anchored) maturation: mature versus precursor form” value (Gas1 and CPY maturation) was “alters the processing of both proteins” and the “activation of the unfolded protein response (GFP reporter)” value [1] was “Strong induction”.
With `COc1ccc(NC(=O)COc2cccc(OCC(C)C)c2)cc1` [LW16] the EC50 (Gwt1; [4]) was 1.17 µM and 1.89 µM and 8.6 µM and the EC50 ([2]; Wildtype S. cerevisiae BY4741) was 2.9 µM.
Work on `COc1ccc(NC(=O)C(C)Oc2cccc(OCC(C)C)c2)cc1` (stereo not drawn) [MAZ1855] yielded an EC50 (Gwt1; [4]) of 93.1 µM and an EC50 (Gwt1; [5]) of 12.8 µM.
Compound `COc1ccc(NC(=O)COc2cccc(OCc3ccccc3)c2)cc1` [MAZ1857] has an EC50 (Gwt1; [4]) of 268 µM and an EC50 (Gwt1; [5]) of 177 µM.
`CC(C)COc1cccc(OCC(=O)Nc2ccc(F)cc2)c1` [CM2] was tested, and the EC50 (Gwt1; [4]) was 3.07 µM, the EC50 (Gwt1; [5]) was 1.16 µM and the EC50 ([2]; Wildtype S. cerevisiae BY4741) was 7.05 µM.
`CC(C)COc1cccc(OCC(=O)Nc2ccc(N(C)C)cc2)c1` [CM3] gave an EC50 [2] of 18.2 µM.
For `OC(Cn1cncn1)(Cn1cncn1)c1ccc(F)cc1F` [fluconazole, reference compound], the “change of toxicity by deletion of HAC1 or IRE1” value [3] was “completely unaffected” and the “activation of the unfolded protein response (GFP reporter)” value [1] was “not seen”.
